This passage reports RP-LC retention time results from the METLIN SMRT retention time set (Domingo-Almenara et al. 2019).

This data set in a line: gradient 5% acetonitrile 3 min, to 50% in 2 min, to 85% in 15 min, held 3 min, 100 µL/min. To be noted: column: Zorbax Extend-C18 2.1 x 50 mm; eluents: water / acetonitrile, 0.1% formic acid. The gist of the method:
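Pure standards were run in mixtures of ~100 molecules by HPLC coupled to a quadrupole time-of-flight mass spectrometer. The column was a Zorbax Extend-C18 (2.1 × 50 mm, 1.8 μm) at 100 μL/min, with water and acetonitrile each containing 0.1% formic acid, in positive and negative ionization mode. Dead and dwell volumes were 40 μL and 900 μL. Retention time was taken from computationally picked adduct peaks, each manually inspected, with data collected over 3 months.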
As for `Cn1c(=O)c2nc(S(=O)(=O)CCC(=O)Nc3ccc(Br)cc3)n(C)c2n(C)c1=O`, the RP-LC retention time was found to be 779 s. Compound `Cc1cc(C)n2c(Nc3ccc4c(c3)OCCO4)c(-c3ccc(Cl)cc3)nc2n1` yielded an RP-LC retention time of 746 s. As to `COC(=O)c1cccc(C(=O)N2CCN(c3cccc(C)c3C)CC2)n1`, the RP-LC retention time came out at 916 s. Next, `Cc1ccccc1NC(=O)C1CCc2nc(N3CCCCC3)ncc2C1` (stereo unspecified): 688 s.

Regarding `Cc1c(C(=O)NC2CC2)cnn1-c1cc(-c2nc(C(C)C)no2)ccn1`, the RP-LC retention time worked out at 940 s. As to `O=C(CCc1nc(-c2ccc(N3CCCCC3)cc2)no1)NCCC1=CCCCC1`, the RP-LC retention time turned out to be 1090 s. Consider `Cc1nnc(NC(=O)CN(C)c2nc3c(Cl)cccc3s2)s1`, for which the RP-LC retention time came to 742 s. As for `Nc1nc(N2CCC3(CC2)OCCO3)ncc1S(=O)(=O)c1ccc(Cl)cc1`, the figure is 896 s; as for `O=C(Nc1ccc(F)c(Cl)c1)N1CCc2nc[nH]c2C1`, 614 s; as for `COCCN1CCC(CNS(=O)(=O)c2ccc(OCC(C)C)cc2)CC1`, 587 s. Next, `O=C(NCC(=O)N1CCc2ccccc21)Nc1ccccc1C(F)(F)F`: 890 s. In turn, `O=C(NCc1ccccc1)Nc1cnc2c(c1)CCC2` yielded an RP-LC retention time of 557 s.

`O=C(C1CCC(=O)N1S(=O)(=O)c1ccccc1)N1CCCCC1` (stereo unspecified) registered an RP-LC retention time of 757 s.

Consider `COc1ccc(-c2noc(-c3ccc(N4CCN(C)CC4)nn3)n2)cc1`, for which the RP-LC retention time is 630 s. The compound `Cc1ccccc1-c1nc(N)n(C(=O)C2CC2)n1` had an RP-LC retention time of 876 s. Next, `Cc1ccc(N2C(=O)CN(S(=O)(=O)c3ccccc3)CC2(C)C(=O)NC2CCCC2)c(C)c1` (stereo unspecified): 983 s. Compound `CCN(CCNC(=O)CCc1cc2cc(C)ccc2[nH]c1=O)Cc1ccccc1` showed an RP-LC retention time of 648 s. `O=c1n(Cc2ccc(F)cc2Cl)nc2ccc(S(=O)(=O)N3CCCCCC3)cn12` registered an RP-LC retention time of 1050 s. The compound `O=C(C1CCCC1)N1CCC(CCOc2ccncc2)CC1` registered an RP-LC retention time of 616 s. `O=C(Cn1nc2c(cc1=O)CCCCC2)Nc1nc(-c2ccncc2)cs1` yielded an RP-LC retention time of 620 s. Next, `Cc1cccc(CCNC(=O)Cc2csc3nc(-c4ccc(C)c(C)c4)cn23)c1`: 911 s; `O=C(Cn1ccn2nc(-c3ccccc3)c(CO)c2c1=O)Nc1ccc(Cl)cc1`: 856 s; `O=C(CCCS(=O)(=O)c1ccccc1)Nc1nnc(-c2ccsc2)o1`: 674 s.

Compound `O=C(CC1CCN(C(=O)c2ccc3oc(C4CC4)nc3c2)CC1)N1CCOCC1` returned an RP-LC retention time of 619 s. Next, `COc1ccc(N2C(=O)CCC(C(=O)N3CC(C)CC(C)C3)C2c2ccc(F)cc2)cc1` (stereo unspecified): 896 s.

Compound `O=C(Cn1nc(Cc2cccnc2)c2ccccc2c1=O)N1CC=C(c2ccccc2)CC1` returned an RP-LC retention time of 680 s. For `O=C1CCCCC(Cc2ccccc2)(C(=O)O)N1` (stereo unspecified), the RP-LC retention time was found to be 652 s. Compound `O=C(C1=CN(c2ccc(Br)cc2)c2ccccc2S1(=O)=O)N1CCCC1` registered an RP-LC retention time of 838 s. As to `CC(C)S(=O)(=O)c1cc2c(cc1NC(=O)c1ccc(Cl)cc1)n(C)c(=O)n2C`, the RP-LC retention time was 936 s. As for `O=C(CCc1c(-c2ccc(F)cc2)nc2ccccn12)NC1CC1`, the figure is 587 s; as for `CCc1ccc(-c2cc(C(F)(F)F)on2)cc1S(=O)(=O)N1CCN(c2ncccn2)CC1`, 1230 s; as for `CCc1cc(=O)n(CC(=O)NCCC2=CCCCC2)c(N)n1`, 642 s. Next, `c1cc(-c2nc(-c3ccc4c(c3)nnn4CCN3CCCCC3)no2)co1`: 642 s; `O=C(CN1CCN(Cc2ccccc2F)C1=O)NCc1ccc(N2CCCCC2)cc1`: 605 s; `CCc1nnc2nc(N3CCN(C(=O)c4ccccc4)CC3)cc(C)n12`: 597 s.

Compound `Cc1ccccc1-c1noc(Cn2c(=O)n(Cc3ccc(F)cc3)c(=O)c3sccc32)n1` displayed an RP-LC retention time of 1150 s. `CCOC(=O)c1noc2nc(C)nc(Nc3cccc(F)c3)c12`: the RP-LC retention time was 1120 s.

In turn, `CCn1c(C(=O)NCCCOC(C)C)cc2c(=O)oc3ccccc3c21` registered an RP-LC retention time of 916 s. As for `CCNc1cc(N2CCCC(CCC(=O)N3CCC(C)CC3)C2)ncn1` (stereo unspecified), the figure is 676 s; as for `CCn1cc(-c2nc(C(=O)Nc3cc(F)ccc3C)cs2)c2cccnc21`, 899 s; as for `CCCCn1c(=O)c2ccccc2n(Cc2nc(-c3ccccc3OCC)no2)c1=O`, 1130 s. Next, `COc1ccc(Br)c(C(=O)N2CCc3[nH]cnc3C23CCCC3)c1`: 648 s; `CCCNC(=O)C1CCN(c2ccc(SCC(=O)Nc3ccc(C)c(Cl)c3)nn2)CC1`: 715 s.

`C#CCOCC1CCN(C(=O)c2cc(-c3cccs3)[nH]n2)CC1` yielded an RP-LC retention time of 734 s. As for `CCCn1cc(C2=CCN(S(=O)(=O)c3cccc(C(F)(F)F)c3)CC2)c2cccnc21`, the figure is 1180 s. In turn, `Cc1ccc(CNC(=O)N2CCCC(Cn3cnc4cccnc43)C2)cc1` (stereo unspecified) showed an RP-LC retention time of 676 s.

With `COc1cc(CNC(=O)CN2C(=O)C(C)(C)c3cc(C)ccc32)cc(OC)c1OC`, the RP-LC retention time stood at 794 s.

On to `COc1cc2c(cc1CNC(=O)Cn1cc(C#N)c3ccccc31)OCCCO2`, for which the RP-LC retention time is 853 s. As for `CCOCCCNCc1ccc(-c2ccccc2)o1`, the figure is 649 s; as for `O=C(c1c(F)cccc1Cl)N1CCc2nc(-c3ccc(Cl)cc3)ncc2C1`, 1160 s; as for `CCNC(=O)Nc1ccc2c(c1)CN(Cc1sccc1C)CCO2`, 608 s. Next, `O=C1CCCc2cc(S(=O)(=O)N3CCC(C(=O)NC4CCCCCC4)CC3)ccc2N1`: 769 s. As for `CCCCn1nc2c(S(=O)(=O)N3CCc4ccccc4C3)cccn2c1=O`, the RP-LC retention time was determined as 914 s. As for `Cc1noc(C2CN(C(=O)Nc3c(F)cccc3F)CC23CCOCC3)n1` (stereo unspecified), the figure is 654 s; as for `COc1ccc(Cl)cc1NC(=O)c1cc2c(=O)oc3ccccc3c2n1C`, 1110 s; as for `O=C(c1ccc(OCC2CCN(C(=O)c3ccco3)CC2)cc1)N1CCOCC1`, 718 s. Regarding `CCCN1CCN(c2ccc(-c3nc(-c4cccc(F)c4)no3)cn2)CC1`, the RP-LC retention time was 739 s.

As for `O=C(Cn1cccc1-c1nc(-c2ccc3c(c2)OCO3)no1)Nc1ccccc1`, the RP-LC retention time worked out at 1140 s.

For `CSc1ncccc1C(=O)NCc1nn(C(C)C)c2ccccc12`, the RP-LC retention time was determined as 830 s.

In turn, `Cc1ccccc1Oc1nccnc1N1CCCC(C(=O)NCc2cccc(Br)c2)C1` (stereo unspecified) returned an RP-LC retention time of 1290 s. For `Cc1ccc2c(c1)N(S(C)(=O)=O)CCC(C(=O)NC1CCCCC1)O2` (stereo unspecified), the RP-LC retention time was 914 s. Next, `CC(=O)Nc1c(C)nn(-c2ccc(Cl)cc2)c1N1CCC(C(=O)NCc2ccco2)CC1`: 685 s; `COc1ccc(OC)c(NC(=O)C(=O)NCC2CCCO2)c1` (stereo unspecified): 807 s; `CN(C)c1cccc(C(=O)NCC(=O)Nc2nc3ccccc3[nH]2)c1`: 594 s. In turn, `Oc1ccc(Cc2ccccc2Cl)c(O)c1` had an RP-LC retention time of 891 s. As for `CC(C)CNC(=O)N1CCn2nnc(CCC(=O)N3CCOCC3)c2C1`, the figure is 604 s; as for `CC1(C(=O)NCc2ccccc2)CCN(S(=O)(=O)c2cccc(C#N)c2)CC1`, 862 s; as for `CC(=O)N1CCCc2ccc(NC(=O)COc3ccc(F)cc3)cc21`, 798 s.

In turn, `COCCc1noc(C2CN(C(=O)c3ocnc3C)C2)n1` yielded an RP-LC retention time of 595 s. As for `COc1ccc(-c2noc(C3CC(=O)N(c4ccc(C)c(F)c4)C3)n2)c(OC)c1` (stereo unspecified), the figure is 948 s; as for `O=C(Nc1cc(-c2cccs2)no1)c1ccc(F)cc1`, 948 s; as for `CC(C)C(=O)N1CCC(c2nc(CNC(=O)C3CCC3)cs2)CC1`, 662 s. On to `COc1cccc(-c2noc(-c3nc(-c4ccc5c(c4)OCO5)no3)n2)c1OC`, for which the RP-LC retention time stood at 1150 s.

On to `Cn1c(=O)c2c(ncn2CC(=O)N2CCC(c3nc(C4CCOCC4)no3)CC2)n(C)c1=O`, for which the RP-LC retention time came out at 611 s.

`CC(C(=O)Nc1cccc(F)c1)C1CCN(C(=O)Nc2ccc(Cl)cc2)CC1` (stereo unspecified) showed an RP-LC retention time of 951 s. With `COc1ccc(CN(C)Cc2cc(=O)c3cc(C)ccc3[nH]2)cc1OC`, the RP-LC retention time was 588 s. As for `Cc1cc(-c2cc(S(=O)(=O)NCc3ccccc3Cl)c(C)s2)n[nH]1`, the figure is 847 s; as for `CCOCCCNC(=O)C1CCCN(S(=O)(=O)c2ccc3c(ccn3CC)c2)C1` (stereo unspecified), 842 s. Regarding `O=C(CSc1ncnc2c1nnn2-c1cccc(Cl)c1)NCC1CCCO1` (stereo unspecified), the RP-LC retention time worked out at 820 s.

For the compound `Cn1cnc(S(=O)(=O)N2CCC(C(=O)Nc3cccc(Cl)c3)CC2)c1`, the RP-LC retention time worked out at 753 s. Next, `COc1cccc(N2CCN(Cc3nc4nc(C)cc(N5CCCC5)n4n3)CC2)c1`: 619 s.
